Assay results from US9908897B2, “Spirocyclic derivatives” (CHRONOS THERAPEUTICS LIMITED, priority 2014, dated 2018).

How the values were obtained:
[1] = molecular target: human norepinephrine transporter (NET) (Homo sapiens (Human), UniProt P23975); assay: Scintillation Proximity Assay (SPA) competition binding, human NET; conditions: recombinant hNET-CHO membranes, [3H]nisoxetine
[2] = molecular target: human serotonin transporter (SERT) (Homo sapiens (Human), UniProt P31645); assay: Scintillation Proximity Assay (SPA) competition binding, human SERT; conditions: recombinant hSERT-CHO membranes, [3H]citalopram
[3] = molecular target: human dopamine transporter (DAT) (Homo sapiens (Human), UniProt Q01959); assay: Scintillation Proximity Assay (SPA) competition binding, human DAT; conditions: recombinant hDAT-CHO membranes, [3H]WIN-35,428
Procedure, shortened: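 SPA binding on membranes from CHO cells stably expressing human DAT, with 5 nM [3H]WIN-35,428, WGA-PVT beads and 0.02% BSA in HEPES/NaCl/KCl buffer pH 7.4.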

[4] = molecular target: human ERG potassium channel (hERG) (Homo sapiens (Human), UniProt Q12809); assay: hERG tail current recording, Rapid ICE automated patch-clamp; type: cell-based; conditions: HEK293 cells stably transfected with hERG
Experimental: Measure of the Effect on hERG Channel by Tail Current Recording Using In Vitro Rapid ICE™
The potency of the compounds of the invention in inhibiting human ERG potassium channel (hERG) tail current is assessed in a recombinant HEK293 cell line stably transfected with hERG cDNA using Rapid ICE™ (Rapid Ion Channel Electrophysiology) assay. Rapid ICE™ is an automated patch-clamp assay utilizing the PatchXpress 7000A system (Molecular Devices Corporation) or the QPatch HTX system (Sophion Bioscience A/S).
Briefly cells are cultivated for 24 to 72 hours before recordings in minimum essential medium supplemented with 10% FBS, 1% non-essential amino acids, 1% sodium pyruvate, 2 mM L-glutamine. The day of the experiment cells are detached with TrypLE and prepared to be loaded on the instrument. For PatchXpress cells are finally resuspended in 150 μl of Extracellular Buffer whereas for QPatch cells are resuspended in 7 ml Serum-Free Media containing 25 mM Hepes and Soybean trypsin inhibitor and immediately placed in the cell storage tank of the machine. The composition of the Extracellular Buffer is (mM): NaCl 137; KCl 4; CaCl2 1.8; MgCl2 1.0; D-glucose 10; N 2 hydroxyethylpiperazine-N′-2-ethanesulfonic acid (HEPES) 10; pH 7.4 with 1 M NaOH. The composition of the pipette solution is (mM): KCl 130; MgCl2 1.0; Ethylene glycol-bis(β-aminoethyl ether)-N,N,N′,N′-tetraacetic acid (EGTA) 5; MgATP 5; HEPES 10; pH 7.2 with 1 M KOH. The voltage protocol includes the following steps: step from −80 mV to −50 mV for 200 ms, +20 mV for 4.8 s, step to −50 mV for 5 s then step to the holding potential of −80 mV. Compounds of the invention are dissolved in DMSO and diluted in Extracellular Buffer to achieve final test concentrations (0.1, 1 and 10 μM) in 0.1% DMSO. The voltage protocol is run and recorded continuously during the experiment. The vehicle, corresponding to 0.1% DMSO in Extracellular Buffer, is then applied for 3 min followed by the test substance in triplicate. The standard combined exposure time is 5 min. The average of tail current amplitude values recorded from 4 sequential voltage pulses is used to calculate for each cell the effect of the test substance by calculating the residual current (% control) compared with vehicle pre-treatment. Data are reported as % inhibition for each concentration tested and IC50 values are estimated using DataXpress or QPatch software. At least two cells are tested, more if results diverge.

Sequence of human ERG potassium channel (hERG) (Q12809 whole entry): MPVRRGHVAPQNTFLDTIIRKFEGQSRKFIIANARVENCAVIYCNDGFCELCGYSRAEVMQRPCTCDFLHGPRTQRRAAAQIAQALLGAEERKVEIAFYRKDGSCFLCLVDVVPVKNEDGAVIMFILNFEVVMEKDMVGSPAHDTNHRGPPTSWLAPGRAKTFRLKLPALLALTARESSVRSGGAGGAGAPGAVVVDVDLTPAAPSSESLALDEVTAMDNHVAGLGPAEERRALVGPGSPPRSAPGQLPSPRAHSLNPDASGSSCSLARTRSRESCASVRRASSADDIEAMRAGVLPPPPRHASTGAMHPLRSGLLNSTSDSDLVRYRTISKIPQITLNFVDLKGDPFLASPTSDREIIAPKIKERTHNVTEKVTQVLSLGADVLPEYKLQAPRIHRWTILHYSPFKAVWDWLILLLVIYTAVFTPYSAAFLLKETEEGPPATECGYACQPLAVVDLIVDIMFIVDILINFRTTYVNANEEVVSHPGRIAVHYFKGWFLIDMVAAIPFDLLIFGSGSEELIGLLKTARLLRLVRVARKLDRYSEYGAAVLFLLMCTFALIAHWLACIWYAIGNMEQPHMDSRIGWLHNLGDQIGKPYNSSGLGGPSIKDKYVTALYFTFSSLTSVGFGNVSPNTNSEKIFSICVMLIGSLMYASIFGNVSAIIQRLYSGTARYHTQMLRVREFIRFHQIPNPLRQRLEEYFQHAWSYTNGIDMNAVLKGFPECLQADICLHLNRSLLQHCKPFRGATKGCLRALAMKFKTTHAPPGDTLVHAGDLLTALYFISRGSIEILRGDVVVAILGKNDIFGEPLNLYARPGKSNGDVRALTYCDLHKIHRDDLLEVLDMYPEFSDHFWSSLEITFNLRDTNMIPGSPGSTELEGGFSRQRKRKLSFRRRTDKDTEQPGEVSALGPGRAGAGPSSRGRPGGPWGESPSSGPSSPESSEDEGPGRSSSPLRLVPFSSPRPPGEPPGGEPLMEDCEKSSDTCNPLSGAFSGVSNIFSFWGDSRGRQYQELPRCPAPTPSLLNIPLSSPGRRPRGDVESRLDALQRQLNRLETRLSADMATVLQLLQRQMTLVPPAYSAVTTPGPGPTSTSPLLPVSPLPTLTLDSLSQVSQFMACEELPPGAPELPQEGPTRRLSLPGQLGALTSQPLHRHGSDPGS
Sequence of human serotonin transporter (SERT) (P31645 whole entry): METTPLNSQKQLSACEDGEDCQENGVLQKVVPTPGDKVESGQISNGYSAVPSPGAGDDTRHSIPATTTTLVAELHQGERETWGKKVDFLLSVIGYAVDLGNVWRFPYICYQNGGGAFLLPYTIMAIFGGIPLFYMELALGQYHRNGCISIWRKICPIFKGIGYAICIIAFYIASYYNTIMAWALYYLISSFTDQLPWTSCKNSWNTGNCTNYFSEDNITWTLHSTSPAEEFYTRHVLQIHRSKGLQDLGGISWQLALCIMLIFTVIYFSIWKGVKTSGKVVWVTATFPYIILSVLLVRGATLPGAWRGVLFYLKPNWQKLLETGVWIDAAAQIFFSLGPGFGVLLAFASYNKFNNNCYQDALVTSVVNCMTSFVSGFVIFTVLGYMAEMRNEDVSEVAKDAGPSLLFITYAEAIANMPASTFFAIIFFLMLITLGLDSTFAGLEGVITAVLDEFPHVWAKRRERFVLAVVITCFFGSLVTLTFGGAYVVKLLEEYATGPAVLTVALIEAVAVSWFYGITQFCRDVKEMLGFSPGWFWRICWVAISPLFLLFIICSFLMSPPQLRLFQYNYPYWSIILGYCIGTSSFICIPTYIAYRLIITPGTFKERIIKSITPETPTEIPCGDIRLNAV
Sequence of human norepinephrine transporter (NET) (P23975 whole entry): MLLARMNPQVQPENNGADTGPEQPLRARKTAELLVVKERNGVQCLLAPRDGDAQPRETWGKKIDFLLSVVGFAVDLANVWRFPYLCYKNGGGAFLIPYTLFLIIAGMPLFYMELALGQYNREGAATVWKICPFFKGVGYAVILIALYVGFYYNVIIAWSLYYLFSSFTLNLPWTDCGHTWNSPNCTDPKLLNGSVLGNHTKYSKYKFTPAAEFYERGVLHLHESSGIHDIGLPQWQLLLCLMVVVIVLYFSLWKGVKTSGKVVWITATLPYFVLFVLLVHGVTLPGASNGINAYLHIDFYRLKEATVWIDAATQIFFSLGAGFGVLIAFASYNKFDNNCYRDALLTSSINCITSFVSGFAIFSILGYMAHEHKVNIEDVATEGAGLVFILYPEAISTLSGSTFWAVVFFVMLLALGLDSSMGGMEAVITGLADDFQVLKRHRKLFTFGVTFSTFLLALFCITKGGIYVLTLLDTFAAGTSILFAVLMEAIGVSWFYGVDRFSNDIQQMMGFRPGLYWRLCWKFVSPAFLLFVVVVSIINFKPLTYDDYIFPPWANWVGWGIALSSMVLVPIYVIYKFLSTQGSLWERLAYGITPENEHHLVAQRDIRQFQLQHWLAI
Sequence of human dopamine transporter (DAT) (Q01959 whole entry): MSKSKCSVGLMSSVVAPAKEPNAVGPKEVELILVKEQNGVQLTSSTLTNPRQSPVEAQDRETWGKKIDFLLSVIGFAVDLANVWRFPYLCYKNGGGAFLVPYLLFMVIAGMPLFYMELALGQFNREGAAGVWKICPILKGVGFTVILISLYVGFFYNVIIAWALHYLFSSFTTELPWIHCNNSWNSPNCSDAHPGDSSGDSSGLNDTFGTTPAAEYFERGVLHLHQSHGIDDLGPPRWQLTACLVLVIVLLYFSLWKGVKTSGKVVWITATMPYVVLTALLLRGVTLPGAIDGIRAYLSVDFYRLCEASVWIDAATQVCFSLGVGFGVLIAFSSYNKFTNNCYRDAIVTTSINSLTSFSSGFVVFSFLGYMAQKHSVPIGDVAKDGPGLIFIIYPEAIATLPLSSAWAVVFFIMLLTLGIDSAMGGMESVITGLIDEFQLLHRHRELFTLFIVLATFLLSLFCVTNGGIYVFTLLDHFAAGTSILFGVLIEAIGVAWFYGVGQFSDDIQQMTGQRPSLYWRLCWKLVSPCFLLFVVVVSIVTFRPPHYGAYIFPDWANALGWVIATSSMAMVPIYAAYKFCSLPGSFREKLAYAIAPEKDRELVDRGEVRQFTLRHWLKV

Compound | pIC50 NET [1] | pIC50 SERT [2] | pIC50 DAT [3] | pIC50 hERG [4]
Cc1cccc(Oc2cc(C)nc(N3CCC4(CC3)CNCCO4)n2)c1.Cl [Example 45, 9-[4-methyl-6-(3-methylphenoxy)pyrimidin-2-yl]-1-oxa-4,9-diazaspiro[5.5]undecane hydrochloride] | 5.54 | 4.83 | 7.59 | 5.7
Fc1cccc(Oc2cc(F)c(F)cc2N2CCC3(CCNCC3)CC2)c1 [Example 82, 3-[4,5-difluoro-2-(3-fluorophenoxy)phenyl]-3,9-diazaspiro[5.5]undecane] | 6.10 | 8.00 | 8.14 | 6.0
N#Cc1cc(Oc2ccccc2)cc(N2CCC3(CC2)CNCCO3)c1 [Example 25, 3-{1-oxa-4,9-diazaspiro[5.5]undecan-9-yl}-5-phenoxybenzonitrile] | 7.19 | 7.43 | 8.66 | 6.1
Cl.FC(F)(F)c1cc(Oc2ccccc2)nc(N2CCC3(CC2)CNCCO3)n1 [Example 55, 9-[4-phenoxy-6-(trifluoromethyl)pyrimidin-2-yl]-1-oxa-4,9-diazaspiro[5.5]undecane hydrochloride] | 6.12 | 6.14 | 8.19 | 5.7
O=C1NCC2(CCN(c3nc(Oc4cccc(F)c4)cc(C(F)(F)F)n3)CC2)O1 [Example 89, 8-[4-(3-fluorophenoxy)-6-(trifluoromethyl)pyrimidin-2-yl]-1-oxa-3,8-diazaspiro[4.5]decan-2-one] | 5.66 | 4.89 | 7.73 | 5.7
Fc1cccc(Oc2cc(F)c(F)cc2N2CCC3(CC2)CNCCO3)c1 [Example 1, 9-[4,5-difluoro-2-(3-fluorophenoxy)phenyl]-1-oxa-4,9-diazaspiro[5.5]undecane] | 5.69 | 6.44 | 7.96 | 6.0
Fc1cccc(Oc2cc(F)cc(N3CCC4(CC3)CNCCO4)c2F)c1 [Example 21, 9-[2,5-difluoro-3-(3-fluorophenoxy)phenyl]-1-oxa-4,9-diazaspiro[5.5]undecane] | 7.49 | 6.48 | 9.11 | 5.4
O=S1(=O)CCNCC12CCN(c1cc(F)c(F)cc1Oc1cccc(F)c1)CC2 [Example 71, 9-[4,5-difluoro-2-(3-fluorophenoxy)phenyl]-1λ^6-thia-4,9-diazaspiro[5.5]undecane-1,1-dione] | 4.82 | 4.55 | 6.22 | 5.1
Fc1cccc(Oc2cc(F)cc(N3CCC4(CC3)CNCCO4)c2)c1 [Example 8, 9-[3-fluoro-5-(3-fluorophenoxy)phenyl]-1-oxa-4,9-diazaspiro[5.5]undecane] | 6.90 | 7.10 | 8.25 | 6.3
N#Cc1ccc(Oc2ccccc2)c(N2CCC3(CC2)CNCCO3)c1 [Example 5, 3-{1-oxa-4,9-diazaspiro[5.5]undecan-9-yl}-4-phenoxybenzonitrile] | 6.19 | 7.63 | 6.82 | 6.2
Cc1cc(Oc2ccccc2)nc(N2CCC3(CC2)CNCCO3)n1.Cl [Example 43, 9-(4-methyl-6-phenoxypyrimidin-2-yl)-1-oxa-4,9-diazaspiro[5.5]undecane hydrochloride] | 6.11 | 4.42 | 8.01 | 5.7
Fc1cccc(Oc2cc(F)c(F)cc2N2CCC3(CNCCO3)C2)c1 (stereo not drawn) [Example 83, 2-[4,5-difluoro-2-(3-fluorophenoxy)phenyl]-6-oxa-2,9-diazaspiro[4.5]decane] | 6.76 | 6.40 | 7.24 | 6.2
